In test [1] the test system is HSV-2 (333 gJ-reporter virus). The test is described as follows: HSV-2 infection of HeLa cells, ONPG assay (Example 4). The test is classed as cell-based. The conditions noted are these: virus pre-incubated; starting concentration 1 mg/ml. On the procedure: In this experiment different clinical strains of HSV-1 (F, G, and MP strains of HSV-1 [37] at 25 pfu/cell) were either pre-incubated with 1×PBS (control) or with CN at the concentrations indicated in FIG. 8, panel A for 90 min at room temperature. After 90 min of incubation the two pools of viruses were incubated with Nectin-1 receptor expressing CHO Igβ cells that express β-galactosidase upon viral entry as described. The viral infection blocking was measured by ONPG assay (FIG. 8, panel A). Similar experiment was conducted using Lac Z encoded HSV-2 (333 gJ-reporter virus). HSV-2 is a genital herpes virus. […] Each value shown is the mean of three or more determinations (±SD).

Test [2] relates to β-galactosidase-expressing recombinant Adenovirus. The experiment in a line: Adenovirus infection of HeLa cells (Example 7). The test is classed as cell-based. The following applies: similar experiments as for CN. On the procedure: HeLa cells were infected with a β-galactosidase-expressing recombinant Adenovirus were pre-incubated with CN at (1) the dilution indicated in FIG. 11, panel A (stock concentration 22 nM) or (2) the concentrations indicated in FIG. 11, panel B, or mock treated with 1 X phosphate saline buffer for 90 min at room temperature. After 12 hr, the cells were washed, permeabilized and incubated with ONPG substrate (3.0 mg/ml) for quantitation of β-galactosidase activity expressed from the input viral genome. Positive (Pos) infected with virus alone; Negative (Neg) uninfected control. The enzymatic activity was measured at an optical density of 410 nm (OD 410).

Test [3] deals with HSV-1 (KOS) gL86. The test is described as follows: HSV-1 infection of HeLa, Vero and 293T cells, virus pre-incubated (Example 3). The test is classed as cell-based, herpes simplex virus type-1. The following applies: HeLa cells; virus 30 pfu/cell pre-incubated 90 min; 6 hr. On the procedure: CN blocks herpes simplex virus type-1 (HSV-1) infection of natural target cells. HeLa, Vero and 293T cells were each grown to 100% confluency in 96-well plates. The β-galactosidase-expressing recombinant virus HSV-1 (KOS) HSV-1 gL86 (30 pfu/cell) was pre-incubated with CN at the concentration indicated in FIG. 7 or mock treated with 1 X phosphate saline buffer for 90 min at room temperature. After 6 hr, the cells were washed, permeabilized and incubated with ONPG substrate (3.0 mg/ml). The β-gal enzymatic activity was measured at an optical density of 410 nm (OD 410). Each value shown in FIG. 7 is the mean of three or more determinations (±SD). Mock treated HSV-1 with PBS was used as a control. HSV-1 infection of HeLa (panel A) and Vero and 293T cells (panel B) was blocked by CN.

The subject of test [4] is HSV-1 (KOS) gL86. The test is described as follows: HSV-1 infection of HeLa cells at MOIs 5, 15 and 25 PFU/cell (Example 6). The test is classed as cell-based, herpes simplex virus type-1. The following applies: virus pre-incubated 180 min, 6 hr. As for the experimental part: HeLa cells were each grown to 100% confluency in 96-well plates. The β-galactosidase-expressing recombinant virus HSV-1 (KOS) HSV-1 gL86 […] was pre-incubated at MOIs of 5 (FIG. 10, panel A), 15 (FIG. 10, panel B) and 25 (FIG. 10, panel C) plaque-forming units per cell (PFU) with VCN (VN), CN or ADAM15 (Ad15) at the concentrations indicated or mock treated with 1 X phosphate saline buffer for 180 min at room temperature. After 6 hr, the cells were washed, permeabilized and incubated with ONPG substrate (3.0 mg/ml). The β-gal enzymatic activity was measured at an optical density of 410 nm (OD 410). Mock treated HSV-1 with PBS was used as a […] control ((+) infected with virus alone; (−) uninfected control).

The term IC50 denotes the concentration that gives 50% inhibition. vicrostatin [VCN]: in test [1], the “HSV-2 infection of HeLa cells (dose response, ONPG assay)” value is given as “significantly inhibited HSV-2 infection”. The IC50 in test [2] was determined as 21 µM. Moreover, the “HSV-1 infection (β-gal activity, OD 410)” value in the test with HSV-1 (KOS) gL86 [3] is “blocked HSV-1 infection of HeLa cells”. Besides, the “HSV-1 infection of HeLa cells, blocking and rank order (β-gal activity, OD 410)” value in the test with HSV-1 (KOS) gL86 [4] is given as “blocked by CN >VCN >ADAM15”.

B1: ADAM15: ADAM15 (Ad15) polypeptide tested against HSV-1; exact construct not stated (protein, UniProt Q13444 207-863, looked up)
Disintegrin and …: DVVTETKTVELVIVADHSEAQKYRDFQHLLNRTLEVALLLDTFFRPLNVRVALVGLEAWTQRDLVEISPNPAVTLENFLHWRRAHLLPRLPHDSAQLVTGTSFSGPTVGMAIQNSICSPDFSGGVNMDHSTSILGVASSIAHELGHSLGLDHDLPGNSCPCPGPAPAKTCIMEASTDFLPGLNFSNCSRRALEKALLDGMGSCLFERLPSLPPMAAFCGNMFVEPGEQCDCGFLDDCVDPCCDSLTCQLRPGAQCASDGPCCQNCQLRPSGWQCRPTRGDCDLPEFCPGDSSQCPPDVSLGDGEPCAGGQAVCMHGRCASYAQQCQSLWGPGAQPAAPLCLQTANTRGNAFGSCGRNPSGSYVSCTPRDAICGQLQCQTGRTQPLLGSIRDLLWETIDVNGTELNCSWVHLDLGSDVAQPLLTLPGTACGPGLVCIDHRCQRVDLLGAQECRSKCHGHGVCDSNRHCYCEEGWAPPDCTTQLKATSSLTTGLLLSLLVLLVLVMLGASYWYRARLHQRLCQLKGPTCQYRAAQSGPSERPGPPQRALLARGTKQASALSFPAPPSRPLPPDPVSKRLQAELADRPNPPTRPLPADPVVRSPKSQGPAKPPPPRKPLPADPQGRCPSGDLPGPGAGIPPLVVPSRPAPPPPTVSSLYL
As for B1, the “HSV-1 infection of HeLa cells, blocking and rank order (β-gal activity, OD 410)” value in the test on HSV-1 (KOS) gL86 [4] was “blocked by CN >VCN >ADAM15”.

Values taken from patent publication US20130177528A1, “COMPOSITIONS AND METHODS FOR INHIBITING VIRAL INFECTION” (WESTERN UNIVERSITY OF HEALTH SCIENCES, priority 2011, published 2013).
